{"source": "patent US20120207740A1", "about": "“Method for Treating Pervasive Development Disorders” (CUREMARK, LLC, priority 1999, published 2012)", "key": {"[1]": {"system": "children diagnosed as having autism", "assay": "Fecal Chymotrypsin Test before and after secretin infusion in 16 autistic children (Experiment 1)", "format": "in vivo, human", "details": "each of 16 autistic children; approximately one week after first secretin infusion, 1 U/kg IV", "description": "(§1) In this experiment, 16 children diagnosed as having autism were administered the following Fecal Chymotrypsin Test in accordance with an embodiment of the invention. First, approximately 2 grams of stool were collected from each child and placed in a sterile container (although it is to be understood that any quantity of stool may be collected, as 2 grams of stool is not a required amount). Each stool sample was then analyzed using, e.g., an enzymatic photospectrometry analysis as is known by those skilled in the art, to determine the level of fecal chymotrypsin in the stool. Although the enzymatic photospectrophotometry process is preferred, any suitable conventional method may be used for measuring the fecal chymotrypsin levels. The measured chymotrypsin levels of the 16 autistic children are illustrated in FIG. 13.\nAfter determining the chymotrypsin levels of the stools, each of these levels were compared with threshold chymotrypsin levels to determine if the child was likely to benefit from secretin administration. By way of example, with the fecal chymotrypsin tests of the stool samples being performed at 30° C., normal levels of chymotrypsin are deemed to lie above 8.4 U/gram, whereas pathologically abnormal levels are deemed to lie below 4.2 U/gram. […]"}, "[2]": {"system": "children diagnosed as having autism", "assay": "CARS (Childhood Autism Rating Scale) test pre- and post-secretin administration (Experiment 1)", "format": "in vivo, human", "details": "16 autistic children", "description": "Upon determining that a given child was likely to benefit from secretin administration based on the results of the fecal chymotrypsin test, the child was administered a CARS (Childhood Autism Rating Scale) test prior to being scheduled for secretin infusion.\nFor each of the 16 autistic children tested, a preferred secretin infusion process according to the present invention was performed involving the administering of 1 U/kg of body weight of Secretin-Ferring for a period of nine months at intervals of approximately 6 weeks. In addition, another CARS test was administered to each of the 16 autistic children 3 weeks post secretin administration to determine if their autism had changed post infusion.\nA preferred secretin infusion process includes the initial step of prepping an arm of the candidate child with an IV injection of saline. A test dose of 1 U of Secretin-Ferring is then administered to the child. Approximately one minute after infusion, the child is examined for signs of allergic reaction including rash, increased heart rate, and increase of blood pressure. […] Subsequently, each child receives a 1 U/kg of body weight infusion of Secretin-Ferring approximately every 6 weeks for 9 months. It is to be understood that any commercially available form of secretin may be used."}, "[3]": {"system": "autistic children with abnormal fecal chymotrypsin levels", "assay": "Fecal chymotrypsin levels of 37 autistic children administered secretin over 6 months (Experiment 2)", "format": "in vivo, human", "details": "6 Months Post-Secretin Administration, of 37 children", "description": "as §1\nAfter determining the chymotrypsin levels of the stools, each of these levels were compared with threshold chymotrypsin levels to determine if the child was likely to benefit from secretin administration. By way of example, with the fecal chymotrypsin tests of the stool samples being performed at 30° C., normal levels of chymotrypsin are deemed to lie above 8.4 U/gram, whereas pathologically abnormal levels are deemed to lie below 4.2 U/gram. In addition, chymotrypsin levels between 8.4 U/gram and 4.2 U/gram are considered equivocal, and further testing of the individual's fecal chymotrypsin levels over a period of time should be performed.\nA preferred secretin infusion process includes the initial step of prepping an arm of the candidate child with an IV injection of saline. A test dose of 1 U of Secretin-Ferring is then administered to the child. […]\nIn this experiment, 37 autistic children with abnormal fecal chymotrypsin levels were administered secretin over the course of 6 months using the secretin infusion process described above. Their fecal chymotrypsin (FC) levels were measured weekly using the fecal chymotrypsin test described above."}, "[4]": {"system": "children diagnosed with Autism", "details": "secretin given as diagnostic procedure during upper gastrointestinal endoscopy; Horvath et al. 1998; cited from earlier work"}}, "data": [{"substance": "secretin", "values": [{"measurement": "fecal chymotrypsin level post-secretin administration versus pre-secretin", "setting": "[1]", "result": "increased"}, {"measurement": "CARS component scores (except fear component)", "setting": "[2]; 3 weeks post infusion", "result": "demonstrated improvement"}, {"measurement": "overall CARS scores post-secretin versus pre-secretin", "setting": "[2]; approximately 3 weeks after first secretin administration", "result": "overall decrease"}, {"measurement": "# Autistic Children w/Equivocal FC levels", "setting": "[3]; 0 equivocal pre-secretin", "result": 2}, {"measurement": "# Autistic Children w/normal FC levels", "setting": "[3]; 0 normal pre-secretin", "result": 34}, {"measurement": "# Autistic Children w/Abnormal FC levels", "setting": "[3]; 37 abnormal pre-secretin", "result": 1}, {"measurement": "symptoms associated with Autism", "setting": "[4]", "result": "ameliorating the symptoms"}]}]}
